This note sets out measurements from patent US20210206758A1, “NAPHTHYRIDINES AS INTEGRIN ANTAGONISTS” (GlaxoSmithKline Intellectual Property Development Limited, priority 2016, published 2021).

Assay type in all cases: cell-based
The target of one experiment is T1, αvβ5 (Homo sapiens, UniProt P06756+P18084).
T1 construct: expressed in transfected cells; host or cells: K562
The experiment in a line: Cell adhesion assay, K562-αvβ5 (Vitronectin). Conditions: K562-αvβ5 cells, ligand Vitronectin, 2 mM MgCl2; for IC50: mean, read-out: αvβ5 pIC50 (mean affinity, cell Adhesion Assay) (converted). The protocol:
(§1) Reagents and methods utilised are as described [Ludbrook et al, Biochem. J. 2003, 369, 311 and Macdonald et al. ACS Med. Chem. Lett. 2014, 5, 1207-1212 for αvβ8 assay), with the following points of clarification. The following cell lines are used, with ligands in brackets: K562-αvβ3 (LAP-b1), K562-αvβ5 (Vitronectin), K562-αvβ6 (LAP-b1), K562-αvβ8 (LAP-b1), A549-αvβ1 (LAP-b1). The divalent cation used to facilitate adhesion is 2 mM MgCl2. Adhesion is quantified by cell labelling with the fluorescent dye BCECF-AM (Life Technologies), where cell suspensions at 3×10^6 cells/mL are incubated with 0.33 uL/mL of 30 mM BCECF-AM at 37° C. for 10 minutes, then 50 μL/well are dispensed into the 96-well assay plate. At the assay conclusion cells that adhered are lysed using 50 μL/well of 0.5% Triton X-100 in H2O to release fluorescence. Fluorescence intensity is detected using an Envision® plate reader (Perkin Elmer). For active antagonists in the assay, data is fitted to a 4 parameter logistic equation for IC50 determinations.

Another experiment deals with T2, αvβ6 (Homo sapiens, UniProt P06756+P18564).
T2 construct: expressed in transfected cells; host or cells: K562
The experiment in a line: Cell adhesion assay, K562-αvβ6 (LAP-b1). Conditions: K562-αvβ6 cells, ligand LAP-b1, 2 mM MgCl2; for IC50: mean, read-out: αvβ6 pIC50 (mean affinity, cell Adhesion Assay) (converted). The protocol:
as §1

A further experiment deals with T3, αvβ1 (Homo sapiens, UniProt P05556+P06756).
T3 construct: host or cells: A549
The experiment in a line: Cell adhesion assay, A549-αvβ1 (LAP-b1). Conditions: A549-αvβ1 cells, ligand LAP-b1, 2 mM MgCl2; for IC50: mean, read-out: αvβ1 pIC50 (mean affinity, cell Adhesion Assay) (converted). Here is the method: as §1

The next experiment has as its target T4, αvβ8 (Homo sapiens, UniProt P06756+P26012).
T4 construct: expressed in transfected cells; host or cells: K562
The experiment in a line: Cell adhesion assay, K562-αvβ8 (LAP-b1). Conditions: K562-αvβ8 cells, ligand LAP-b1, 2 mM MgCl2; for IC50: mean, read-out: αvβ8 pIC50 (mean affinity, cell Adhesion Assay) (converted). Here is the method:
as §1

In a further experiment the target is T5, αvβ3 (Homo sapiens, UniProt P05106+P06756).
T5 construct: expressed in transfected cells; host or cells: K562
The experiment in a line: Cell adhesion assay, K562-αvβ3 (LAP-b1). The note with it: K562-αvβ3 cells, ligand LAP-b1, 2 mM MgCl2; for IC50: mean, read-out: αvβ3 pIC50 (mean affinity, cell Adhesion Assay) (converted). Here is the method:
as §1

Several values for one entry are separate records, joined by “and”; a condition that tells them apart may be missing. Equal values may be shown once.

T1 sequence (P06756 31-889 limits assumed): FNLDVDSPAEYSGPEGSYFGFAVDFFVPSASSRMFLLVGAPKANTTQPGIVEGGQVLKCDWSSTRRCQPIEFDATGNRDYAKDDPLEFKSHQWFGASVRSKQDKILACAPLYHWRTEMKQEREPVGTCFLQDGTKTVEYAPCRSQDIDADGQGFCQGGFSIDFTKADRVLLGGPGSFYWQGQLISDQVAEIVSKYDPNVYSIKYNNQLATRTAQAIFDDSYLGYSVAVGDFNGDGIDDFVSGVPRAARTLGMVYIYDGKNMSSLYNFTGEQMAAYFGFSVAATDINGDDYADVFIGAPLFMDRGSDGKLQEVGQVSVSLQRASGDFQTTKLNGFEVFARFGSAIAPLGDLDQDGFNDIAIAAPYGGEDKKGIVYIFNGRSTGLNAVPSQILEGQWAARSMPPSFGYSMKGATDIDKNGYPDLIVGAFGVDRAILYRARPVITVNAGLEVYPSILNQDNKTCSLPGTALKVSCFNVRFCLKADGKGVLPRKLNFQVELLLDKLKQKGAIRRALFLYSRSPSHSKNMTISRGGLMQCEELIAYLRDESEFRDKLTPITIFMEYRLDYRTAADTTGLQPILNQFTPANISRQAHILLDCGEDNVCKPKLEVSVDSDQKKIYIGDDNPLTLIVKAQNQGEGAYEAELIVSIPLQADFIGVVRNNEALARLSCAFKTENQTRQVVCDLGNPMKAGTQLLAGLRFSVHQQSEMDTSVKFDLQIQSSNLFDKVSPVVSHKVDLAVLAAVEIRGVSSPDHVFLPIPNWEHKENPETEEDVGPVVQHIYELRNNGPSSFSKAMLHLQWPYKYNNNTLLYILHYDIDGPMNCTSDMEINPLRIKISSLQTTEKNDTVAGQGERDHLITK
T1 sequence (P06756 891-1048 partner limits assumed): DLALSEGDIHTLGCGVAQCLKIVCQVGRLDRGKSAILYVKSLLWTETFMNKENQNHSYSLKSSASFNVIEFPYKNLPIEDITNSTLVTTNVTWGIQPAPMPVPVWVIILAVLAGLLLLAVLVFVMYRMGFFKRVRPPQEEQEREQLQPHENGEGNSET
T1 sequence (P18084 24-799): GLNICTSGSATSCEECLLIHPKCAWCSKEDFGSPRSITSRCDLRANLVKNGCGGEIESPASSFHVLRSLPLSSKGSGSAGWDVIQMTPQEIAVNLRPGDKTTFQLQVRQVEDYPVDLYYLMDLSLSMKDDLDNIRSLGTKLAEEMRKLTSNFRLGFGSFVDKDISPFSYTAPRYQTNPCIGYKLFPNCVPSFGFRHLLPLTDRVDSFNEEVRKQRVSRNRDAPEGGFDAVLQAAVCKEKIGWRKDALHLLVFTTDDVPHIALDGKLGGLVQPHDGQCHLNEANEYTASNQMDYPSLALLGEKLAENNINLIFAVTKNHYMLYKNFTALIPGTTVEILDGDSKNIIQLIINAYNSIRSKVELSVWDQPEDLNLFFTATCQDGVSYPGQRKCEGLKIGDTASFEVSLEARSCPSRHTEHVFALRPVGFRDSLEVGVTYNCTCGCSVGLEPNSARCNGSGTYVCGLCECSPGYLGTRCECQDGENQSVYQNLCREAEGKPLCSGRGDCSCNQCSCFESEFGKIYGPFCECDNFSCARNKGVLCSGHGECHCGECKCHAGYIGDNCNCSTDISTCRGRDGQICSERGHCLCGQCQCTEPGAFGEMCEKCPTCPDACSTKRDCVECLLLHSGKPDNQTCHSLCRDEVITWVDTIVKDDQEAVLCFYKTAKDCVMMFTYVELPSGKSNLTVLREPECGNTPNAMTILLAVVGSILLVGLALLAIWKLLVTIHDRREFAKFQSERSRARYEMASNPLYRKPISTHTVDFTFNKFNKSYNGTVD
T3 sequence (P06756 31-889 limits assumed): as the sequence (P06756 31-889 limits assumed) above
T3 sequence (P06756 891-1048 partner limits assumed): as the sequence (P06756 891-1048 partner limits assumed) above
T3 sequence (P05556 21-798): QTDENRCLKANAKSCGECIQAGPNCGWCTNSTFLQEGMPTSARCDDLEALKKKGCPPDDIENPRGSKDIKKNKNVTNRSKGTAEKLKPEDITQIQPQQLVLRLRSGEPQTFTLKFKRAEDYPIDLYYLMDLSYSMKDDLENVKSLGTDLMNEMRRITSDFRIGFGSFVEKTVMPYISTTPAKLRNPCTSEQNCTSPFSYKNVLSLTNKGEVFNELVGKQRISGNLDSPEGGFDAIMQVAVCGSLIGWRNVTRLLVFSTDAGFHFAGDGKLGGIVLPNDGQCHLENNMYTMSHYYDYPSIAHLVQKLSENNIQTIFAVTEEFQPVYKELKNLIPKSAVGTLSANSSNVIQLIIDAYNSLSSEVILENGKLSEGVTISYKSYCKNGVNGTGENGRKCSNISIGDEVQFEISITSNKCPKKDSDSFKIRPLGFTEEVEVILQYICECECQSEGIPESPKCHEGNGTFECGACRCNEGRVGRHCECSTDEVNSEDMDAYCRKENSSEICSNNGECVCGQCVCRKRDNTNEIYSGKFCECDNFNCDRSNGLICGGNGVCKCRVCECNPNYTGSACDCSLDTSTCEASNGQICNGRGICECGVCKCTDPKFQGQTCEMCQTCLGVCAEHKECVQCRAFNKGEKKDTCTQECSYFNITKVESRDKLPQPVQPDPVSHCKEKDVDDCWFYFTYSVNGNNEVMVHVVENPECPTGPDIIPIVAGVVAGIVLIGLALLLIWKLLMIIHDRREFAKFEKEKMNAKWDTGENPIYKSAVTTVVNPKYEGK
T5 sequence (P06756 31-889 limits assumed): as the sequence (P06756 31-889 limits assumed) above
T5 sequence (P06756 891-1048 partner limits assumed): as the sequence (P06756 891-1048 partner limits assumed) above
T5 sequence (P05106 27-788): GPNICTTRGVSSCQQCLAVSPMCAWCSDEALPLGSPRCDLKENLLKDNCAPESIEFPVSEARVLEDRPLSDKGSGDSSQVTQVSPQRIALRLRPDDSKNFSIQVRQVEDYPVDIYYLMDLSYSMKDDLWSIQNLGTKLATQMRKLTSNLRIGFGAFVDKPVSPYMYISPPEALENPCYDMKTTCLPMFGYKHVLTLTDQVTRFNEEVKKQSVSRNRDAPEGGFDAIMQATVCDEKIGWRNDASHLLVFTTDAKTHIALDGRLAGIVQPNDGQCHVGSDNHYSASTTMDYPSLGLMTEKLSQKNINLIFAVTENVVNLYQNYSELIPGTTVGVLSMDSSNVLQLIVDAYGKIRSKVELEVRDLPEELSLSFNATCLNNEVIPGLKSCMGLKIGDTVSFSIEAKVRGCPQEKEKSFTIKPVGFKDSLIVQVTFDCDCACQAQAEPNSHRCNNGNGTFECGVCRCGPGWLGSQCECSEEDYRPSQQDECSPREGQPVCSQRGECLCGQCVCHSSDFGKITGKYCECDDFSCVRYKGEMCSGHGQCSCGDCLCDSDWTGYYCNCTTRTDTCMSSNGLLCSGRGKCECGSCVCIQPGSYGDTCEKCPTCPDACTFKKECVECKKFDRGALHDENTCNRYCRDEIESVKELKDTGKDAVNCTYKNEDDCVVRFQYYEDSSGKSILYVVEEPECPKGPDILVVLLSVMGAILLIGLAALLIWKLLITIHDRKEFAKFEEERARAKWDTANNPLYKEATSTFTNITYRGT
T2 sequence (P06756 31-889 limits assumed): as the sequence (P06756 31-889 limits assumed) above
T2 sequence (P06756 891-1048 partner limits assumed): as the sequence (P06756 891-1048 partner limits assumed) above
T2 sequence (P18564 22-788): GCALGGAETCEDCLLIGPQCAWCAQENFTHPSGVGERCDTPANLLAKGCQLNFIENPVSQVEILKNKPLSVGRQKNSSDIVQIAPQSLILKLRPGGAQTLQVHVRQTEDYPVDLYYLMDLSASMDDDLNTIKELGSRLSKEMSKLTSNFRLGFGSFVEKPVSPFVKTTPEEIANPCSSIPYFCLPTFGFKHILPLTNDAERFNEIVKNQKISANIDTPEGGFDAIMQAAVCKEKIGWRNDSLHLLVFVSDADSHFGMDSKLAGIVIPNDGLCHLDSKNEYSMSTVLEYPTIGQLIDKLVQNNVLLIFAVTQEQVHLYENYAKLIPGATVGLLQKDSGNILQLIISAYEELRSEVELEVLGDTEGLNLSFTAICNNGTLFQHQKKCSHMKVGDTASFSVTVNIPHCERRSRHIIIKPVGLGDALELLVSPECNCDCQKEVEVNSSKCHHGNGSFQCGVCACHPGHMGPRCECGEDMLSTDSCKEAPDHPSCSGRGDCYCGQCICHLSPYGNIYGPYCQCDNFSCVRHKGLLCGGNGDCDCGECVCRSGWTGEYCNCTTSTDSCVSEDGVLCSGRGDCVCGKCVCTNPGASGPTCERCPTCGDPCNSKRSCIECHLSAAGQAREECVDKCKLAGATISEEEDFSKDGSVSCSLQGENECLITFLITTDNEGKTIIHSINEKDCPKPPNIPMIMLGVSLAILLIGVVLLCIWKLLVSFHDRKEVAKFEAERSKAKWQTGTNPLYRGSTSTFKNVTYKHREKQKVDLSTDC

For the compound `CO[C@H](C)COc1cccc([C@H](CC(=O)O)CN2CC[C@@](F)(CCc3ccc4c(n3)NCCC4)C2)c1` [Example 5], the IC50 on αvβ5 is 0.0251 µM; on αvβ6, 0.0126 µM; at αvβ1, 0.2 µM; at αvβ8 it was 0.0316 µM; on αvβ3, 0.0316 µM.

For the compound `O=C(O)C[C@H](CN1CC[C@@](F)(CCc2ccc3c(n2)NCCC3)C1)c1cccc(OC[C@H]2CCCO2)c1` [Example 1, (S)-4-((S)-3-Fluoro-3-(2-(5,6,7,8-tetrahydro-1,8-naphthyridin-2-yl)ethyl)pyrrolidin-1-yl)-3-(3-(((R)-tetrahydrofuran-2-yl)methoxy)phenyl)butanoic acid], the IC50 was 0.251 µM on αvβ5; 0.0251 µM on αvβ6; 2 µM at αvβ1; 0.1 µM at αvβ8; 0.0794 µM at αvβ3.

For the compound `O=C(O)/C=C\C(=O)O.O=C(O)C[C@H](CN1CC[C@@](F)(CCc2ccc3c(n2)NCCC3)C1)c1cccc(O[C@H]2CCOC2)c1` [Example 19, (S)-4-((S)-3-Fluoro-3-(2-(5,6,7,8-tetrahydro-1,8-naphthyridin-2-yl)ethyl)pyrrolidin-1-yl)-3-(3-(((S)-tetrahydrofuran-3-yl)oxy)phenyl)butanoic acid (1:1) maleate salt], the “αvβ5 pIC50 (mean affinity, cell Adhesion Assay)” value (shortened to “αvβ5 pIC50”) on αvβ5 was 7.5. For the same compound, the “αvβ6 pIC50 (mean affinity, cell Adhesion Assay)” value (“αvβ6 pIC50” below) at αvβ6 is 8.2. The “αvβ1 pIC50 (mean affinity, cell Adhesion Assay)” value (“αvβ1 pIC50” below) on αvβ1 is 6.6. In addition, at αvβ8, the “αvβ8 pIC50 (mean affinity, cell Adhesion Assay)” value (from here on “αvβ8 pIC50”) is on record as 7.4. On αvβ3, the “αvβ3 pIC50 (mean affinity, cell Adhesion Assay)” value (“αvβ3 pIC50” for short) is listed as 7.3.

For the compound `O=C(O)CC(O)(CC(=O)O)C(=O)O.O=C(O)C[C@H](CN1CC[C@@](F)(CCc2ccc3c(n2)NCCC3)C1)c1cccc(O[C@@H]2CCOC2)c1` [Example 16, (S)-4-((S)-3-Fluoro-3-(2-(5,6,7,8-tetrahydro-1,8-naphthyridin-2-yl)ethyl)pyrrolidin-1-yl)-3-(3-(((R)-tetrahydrofuran-3-yl)oxy)phenyl)butanoic acid (1:1) citrate salt], at αvβ5, the “αvβ5 pIC50” value is listed as 7.4. In addition, the “αvβ1 pIC50” value at αvβ1 is reported as 6.8. Also, at αvβ3, the “αvβ3 pIC50” value is given as 7.6.

`O=C(O)C[C@H](CN1CC[C@@](F)(CCc2ccc3c(n2)NCCC3)C1)c1cccc(OC2CCOCC2)c1` [Example 15, (S)-4-((S)-3-Fluoro-3-(2-(5,6,7,8-tetrahydro-1,8-naphthyridin-2-yl)ethyl)pyrrolidin-1-yl)-3-(3-((tetrahydro-2H-pyran-4-yl)oxy)phenyl)butanoic acid]: the IC50 at αvβ5 was 0.0398 µM; at αvβ6, 0.01 µM and 0.0126 µM; on αvβ1 it was 0.316 µM; at αvβ3, 0.02 µM.

`O=C(O)/C=C\C(=O)O.O=C(O)C[C@H](CN1CC[C@@](F)(CCc2ccc3c(n2)NCCC3)C1)c1cccc(O[C@@H]2CCOC2)c1` [Example 17, (S)-4-((S)-3-Fluoro-3-(2-(5,6,7,8-tetrahydro-1,8-naphthyridin-2-yl)ethyl)pyrrolidin-1-yl)-3-(3-(((R)-tetrahydrofuran-3-yl)oxy)phenyl)butanoic acid (1:1) maleate salt]: at αvβ5, the “αvβ5 pIC50” value was determined as 8.1. In addition, the “αvβ6 pIC50” value at αvβ6 is listed as 8.2. The “αvβ1 pIC50” value on αvβ1 worked out at 6.9. The “αvβ8 pIC50” value at αvβ8 was found to be 7.7. The “αvβ3 pIC50” value on αvβ3 stood at 7.3.

Consider `COCC(C)(C)Oc1cccc([C@H](CC(=O)O)CN2CC[C@@](F)(CCc3ccc4c(n3)NCCC4)C2)c1` [Example 7, (S)-4-((S)-3-Fluoro-3-(2-(5,6,7,8-tetrahydro-1,8-naphthyridin-2-yl)ethyl)pyrrolidin-1-yl)-3-(3-((1-methoxy-2-methylpropan-2-yl)oxy)phenyl)butanoic acid], for which the IC50 at αvβ5 was 0.0631 µM; at αvβ6 it was 0.02 µM; on αvβ1 it was 0.0631 µM; at αvβ8, 0.0501 µM; at αvβ3, 0.0794 µM.

In the case of `O=C(O)C[C@H](CN1CC[C@@](F)(CCc2ccc3c(n2)NCCC3)C1)c1cccc(OCC2COC2)c1` [Example 12, (S)-4-((S)-3-Fluoro-3-(2-(5,6,7,8-tetrahydro-1,8-naphthyridin-2-yl)ethyl)pyrrolidin-1-yl)-3-(3-(oxetan-3-ylmethoxy)phenyl)butanoic acid], the IC50 at αvβ5 was 0.0316 µM; at αvβ6, 0.0158 µM; on αvβ1, 0.251 µM; at αvβ8 it was 0.0251 µM; on αvβ3, 0.0631 µM.

As to `COCCOc1cc(OCCOC)cc([C@H](CC(=O)O)CN2CC[C@@](F)(CCc3ccc4c(n3)NCCC4)C2)c1` [Example 9, (S)-3-(3,5-Bis(2-methoxyethoxy)phenyl)-4-((S)-3-fluoro-3-(2-(5,6,7,8-tetrahydro-1,8-naphthyridin-2-yl)ethyl)pyrrolidin-1-yl)butanoic acid], the IC50 at αvβ6 is 0.01 µM; on αvβ1, 1 µM; on αvβ8, 0.0501 µM.

For the compound `O=C(O)CC(O)(CC(=O)O)C(=O)O.O=C(O)C[C@H](CN1CC[C@@](F)(CCc2ccc3c(n2)NCCC3)C1)c1cccc(O[C@H]2CCOC2)c1` [Example 18, (S)-4-((S)-3-Fluoro-3-(2-(5,6,7,8-tetrahydro-1,8-naphthyridin-2-yl)ethyl)pyrrolidin-1-yl)-3-(3-(((S)-tetrahydrofuran-3-yl)oxy)phenyl)butanoic acid (1:1) citrate salt], the “αvβ5 pIC50” value on αvβ5 is given as 7.5. Moreover, on αvβ6, the “αvβ6 pIC50” value is recorded as 8.3. Moreover, on αvβ1, the “αvβ1 pIC50” value is on record as 6.4. Further, the “αvβ8 pIC50” value at αvβ8 was determined as 7.7. The “αvβ3 pIC50” value on αvβ3 was found to be 7.3.

For the compound `COCCOc1cc(OCCF)cc(C(CC(=O)O)CN2CC[C@@](F)(CCc3ccc4c(n3)NCCC4)C2)c1` (stereo partly drawn) [Example 13, 4-((S)-3-Fluoro-3-(2-(5,6,7,8-tetrahydro-1,8-naphthyridin-2-yl)ethyl)pyrrolidin-1-yl)-3-(3-(2-fluoroethoxy)-5-(2-methoxyethoxy)phenyl)butanoic acid], the IC50 on αvβ5 is 0.1 µM; at αvβ6, 0.01 µM; on αvβ1 it was 0.126 µM; on αvβ8 it was 0.0316 µM; at αvβ3, 0.0794 µM.

Take `O=C(O)C[C@H](CN1CC[C@@](F)(CCc2ccc3c(n2)NCCC3)C1)c1cccc(O[C@H]2CCOC2)c1` [Example 4, (S)-4-((S)-3-Fluoro-3-(2-(5,6,7,8-tetrahydro-1,8-naphthyridin-2-yl)ethyl)pyrrolidin-1-yl)-3-(3-(((S)-tetrahydrofuran-3-yl)oxy)phenyl)butanoic acid]: the IC50 on αvβ5 is 0.0794 µM; at αvβ6, 0.00501 µM; on αvβ1 it was 0.1 µM; at αvβ8 it was 0.0316 µM; on αvβ3, 0.0501 µM.

As for `O=C(O)C[C@H](CN1CC[C@@](F)(CCc2ccc3c(n2)NCCC3)C1)c1cccc(OC2COC2)c1` [Example 8, (S)-4-((S)-3-Fluoro-3-(2-(5,6,7,8-tetrahydro-1,8-naphthyridin-2-yl)ethyl)pyrrolidin-1-yl)-3-(3-(oxetan-3-yloxy)phenyl)butanoic acid], the IC50 at αvβ5 was 0.0631 µM; on αvβ6, 0.0126 µM; on αvβ1 it was 0.398 µM; on αvβ8, 0.0316 µM; at αvβ3, 0.1 µM.

Take `O=C(O)C[C@H](CN1CC[C@@](F)(CCc2ccc3c(n2)NCCC3)C1)c1cccc(C2CCOC2)c1` (single isomer, unassigned; isomer 2) [Example 11]: the IC50 at αvβ5 and at αvβ1 was 0.126 µM throughout.

On to `O=C(O)C[C@H](CN1CC[C@@](F)(CCc2ccc3c(n2)NCCC3)C1)c1cccc(OC[C@@H]2CCCO2)c1` [Example 2, (S)-4-((S)-3-Fluoro-3-(2-(5,6,7,8-tetrahydro-1,8-naphthyridin-2-yl)ethyl)pyrrolidin-1-yl)-3-(3-(((S)-tetrahydrofuran-2-yl)methoxy)phenyl)butanoic acid], for which the IC50 was 0.1 µM on αvβ5, 0.0158 µM at αvβ6, 1 µM on αvβ1 and 0.1 µM at αvβ8.
